Experimental data taken from PubChem BioAssay AID264 (DTP/NCI, 2004).
Where “and” joins values, the source holds several entries; their conditions need not be identical. Equal values may be shown once. Inconclusive results are not listed. Bridge positions count the residues as written; N and C are the ends. Square brackets hold non-standard residues; d marks the D form. Peptide text beside a SMILES is read from it. I, II: the chains in the order shown. * marks the point of attachment. Quinoxaline2carbonyl = O=C(c1cnc2ccccc2n1)*; NMeV = CN[CH](C(=O)O)C(C)C; NMeC = CN[CH](CS)C(=O)O

Tested on: nude mice, LX-1 lung xenograft intrarenal, tumor weight T/C
Assay: NCI In Vivo Anticancer Drug Screen. Data for tumor model Human Lung LX-1 Xenograft (intrarenal inoculation) in NU/NU Swiss (nude) mice
Settings: endpoint: mean tumor weight change, higher = larger tumour
Experimental: The antitumor activity of compounds was measured in mice bearing transplantable tumors. Survival or tumor size were measured and the results are expressed as the measurement made in the treated group (T) divided by the measurement made in the vehicle treated control group (C). The tumor model used in this assay is Human Lung LX-1 Xenograft (intrarenal inoculation) in NU/NU Swiss (nude) mice

[1] = dose: 200.0 mg/kg/injection, schedule: Q01DX010 (sc), vehicle: Klucel (hydroxypropylcellulose) (HPC)
[2] = dose: 150.0 mg/kg/injection, schedule: Q04DX003 (sc), vehicle: saline with Tween-80
[3] = dose: 600.0 mg/kg/injection, schedule: Q04DX003 (sc), vehicle: saline with Tween-80
[4] = dose: 1200.0 mg/kg/injection, schedule: Q04DX003 (sc), vehicle: saline with Tween-80
[5] = dose: 150.0 mg/kg/injection, schedule: Q04DX003 (sc), vehicle: Klucel (hydroxypropylcellulose) (HPC)
[6] = dose: 300.0 mg/kg/injection, schedule: Q04DX003 (sc), vehicle: Klucel (hydroxypropylcellulose) (HPC)
[7] = dose: 600.0 mg/kg/injection, schedule: Q04DX003 (sc), vehicle: Klucel (hydroxypropylcellulose) (HPC)
[8] = dose: 1200.0 mg/kg/injection, schedule: Q04DX003 (sc), vehicle: Klucel (hydroxypropylcellulose) (HPC)
[9] = dose: 300.0 mg/kg/injection, schedule: Q04DX003 (sc), vehicle: saline with Tween-80
[10] = dose: 200.0 mg/kg/injection, schedule: Q04DX003 (sc), vehicle: saline with Tween-80
[11] = dose: 100.0 mg/kg/injection, schedule: Q01DX010 (sc), vehicle: saline with Tween-80

With `CN(C)/N=N/c1nc[nH]c1C(N)=O` the T/C (dose: 50.0 mg/kg/injection, schedule: Q01DX010 (sc), vehicle: Klucel (hydroxypropylcellulose) (HPC)) was 4 % of control, the T/C (dose: 100.0 mg/kg/injection, schedule: Q01DX010 (sc), vehicle: Klucel (hydroxypropylcellulose) (HPC)) was -84 % of control and the T/C [1] was -100 % of control.

In the case of `CNc1nc2c(N)ncnc2n1C1OC(CO)C(O)C1O` (centres undefined), the T/C (dose: 25.0 mg/kg/injection, schedule: Q04DX003 (sc), vehicle: saline) is reported as 103 % of control, the T/C (dose: 50.0 mg/kg/injection, schedule: Q04DX003 (sc), vehicle: saline) is reported as 82 % of control and the T/C (dose: 100.0 mg/kg/injection, schedule: Q04DX003 (sc), vehicle: saline) is reported as 57 % of control.

For `O=NN(CCF)C(=O)NC1CCCCC1`, the T/C (dose: 6.25 mg/kg/injection, schedule: Q04DX003 (sc), vehicle: Klucel (hydroxypropylcellulose) (HPC)) was 66 % of control and the T/C (dose: 12.5 mg/kg/injection, schedule: Q04DX003 (sc), vehicle: Klucel (hydroxypropylcellulose) (HPC)) was 39 % of control.

In the case of `O=S(=O)(c1ccccc1)N1CN2CCN(C2)C1`, the T/C [2] is reported as 195 % of control, the T/C [3] is reported as 106 % of control and the T/C [4] is reported as 156 % of control.

For `Cc1ccc(S(=O)(=O)N/N=C/C(Br)=C(/Br)C(=O)O)cc1`, the T/C [5] was 66 % of control, the T/C [6] was 58 % of control and the T/C [7] was 43 % of control.

In the case of `CC(=O)OC1=NC(C)c2c1cc(OC(C)=O)[nH]c2=O` (centres undefined), the T/C [5] is reported as 90 % of control, the T/C [6] is reported as 87 % of control and the T/C [7] is reported as 87 % of control. The T/C [8] was 74 % of control.

With `COc1cc(O)c2c(O)c3c(c4c2c1[C@]1(C4)C(C)=CCCC1(C)C)[C@H](O)[C@@]1(O)CC(=O)C(C(N)=O)=C(O)[C@@]1(O)C3=O` the T/C [9] was 55 % of control, the T/C [3] was 58 % of control and the T/C [4] was 42 % of control.

With `CCCCCCCCCCCCSC1=C(Cl)C(=O)C(OC)=C(OC)C1=O` the T/C (dose: 75.0 mg/kg/injection, schedule: Q04DX003 (sc), vehicle: saline with Tween-80) was 71 % of control and the T/C [2] was 81 % of control.

For `C[n+]1c(/C=C\C=C\N2CCCCC2)sc2ccccc21`, the T/C (dose: 1.5 mg/kg/injection, schedule: Q04DX003 (sc), vehicle: Klucel (hydroxypropylcellulose) (HPC)) was 52 % of control and the T/C (dose: 3.0 mg/kg/injection, schedule: Q04DX003 (sc), vehicle: Klucel (hydroxypropylcellulose) (HPC)) was 83 % of control.

`C=C(C)C(=NC(C)(C)C)Nc1ccccc1` was tested, and the T/C (dose: 50.0 mg/kg/injection, schedule: Q04DX003 (sc), vehicle: saline with Tween-80) was 62 % of control and the T/C [10] was 34 % of control.

`O=CC=O` was tested, and the T/C (dose: 50.0 mg/kg/injection, schedule: Q01DX010 (sc), vehicle: saline with Tween-80) was 82 % of control and the T/C [11] was 61 % of control.

In the case of `O=C1C(NCC(O)CO)=C(N2CC2)C(=O)C(NCC(O)CO)=C1N1CC1` (centres undefined), the T/C (dose: 4.0 mg/kg/injection, schedule: Q04DX003 (ip), vehicle: saline) is reported as 102 % of control, the T/C (dose: 8.0 mg/kg/injection, schedule: Q04DX003 (ip), vehicle: saline) is reported as 84 % of control and the T/C (dose: 16.0 mg/kg/injection, schedule: Q04DX003 (ip), vehicle: saline) is reported as 61 % of control. The T/C (dose: 32.0 mg/kg/injection, schedule: Q04DX003 (ip), vehicle: saline) was 50 % of control.

In the case of `CCC1=C2C(=O)c3ccccc3C2=C(C)S(=O)(=O)O1`, the T/C [9] is reported as 66 % of control, the T/C [3] is reported as 70 % of control and the T/C [4] is reported as 89 % of control. The T/C (dose: 2400.0 mg/kg/injection, schedule: Q04DX003 (sc), vehicle: saline with Tween-80) was 86 % of control.

In the case of `COC1=C(N)C(=O)c2nc(-c3nc(C(=O)O)c(C)c(-c4ccc(OC)c(OC)c4O)c3N)ccc2C1=O`, the T/C (dose: 0.13 mg/kg/injection, schedule: Q01DX010 (sc), vehicle: saline) is reported as 8 % of control, the T/C (dose: 0.25 mg/kg/injection, schedule: Q01DX010 (sc), vehicle: saline) is reported as 7 % of control and -6 % of control and the T/C (dose: 1.0 mg/kg/injection, schedule: Q01DX010 (sc), vehicle: saline) is reported as -85 % of control.

`CCC(=O)N(C)[C@@H](C)C(=O)O[C@H]1CC(=O)N(C)c2cc(cc(OC)c2Cl)C/C(C)=C/C=C[C@@H](OC)[C@@]2(O)C[C@H](OC(=O)N2)[C@@H](C)[C@@H]2O[C@@]12C` was tested, and the T/C (dose: 0.13 mg/kg/injection, schedule: Q01DX010 (sc), vehicle: saline + alcohol) was 106 % of control and the T/C (dose: 0.25 mg/kg/injection, schedule: Q01DX010 (sc), vehicle: saline + alcohol) was 31 % of control.

In the case of `C=C(NC(=O)C(=C)NC(=O)c1csc(C2=NC3c4csc(n4)C4NC(=O)c5csc(n5)C(C(C)(O)C(C)O)NC(=O)C5CSC(=N5)/C(=C/C)NC(=O)C(C(C)O)NC(=O)c5csc(n5)C3(CC2)NC(=O)C(C)NC(=O)C(=C)NC(=O)C(C)NC(=O)C(C(C)CC)NC2C=Cc3c(C(C)O)cc(nc3C2O)C(=O)OC4C)n1)C(N)=O` (centres undefined), the T/C [1] is reported as 90 % of control, the T/C (dose: 400.0 mg/kg/injection, schedule: Q01DX010 (sc), vehicle: Klucel (hydroxypropylcellulose) (HPC)) is reported as 65 % of control and the T/C (dose: 1600.0 mg/kg/injection, schedule: Q01DX010 (sc), vehicle: Klucel (hydroxypropylcellulose) (HPC)) is reported as 53 % of control.

For `CC12CC(C(=O)O)C3(O)CC(C)(C1)CC(C)(C2)C3` (centres undefined) (tested in a mixture with another compound), the T/C [6] was 86 % of control, the T/C [7] was 57 % of control and the T/C [8] was 105 % of control. For the same molecule, the T/C (dose: 2400.0 mg/kg/injection, schedule: Q04DX003 (sc), vehicle: Klucel (hydroxypropylcellulose) (HPC)) was 105 % of control.

With `CC1NC(=O)C(NC(=O)c2cnc3ccccc3n2)COC(=O)C(C(C)C)N(C)C(=O)C2CSSCC(C(=O)N(C)C(C(C)C)C(=O)OCC(NC(=O)c3cnc4ccccc4n3)C(=O)NC(C)C(=O)N2C)N(C)C1=O` (centres undefined) (I: Quinoxaline2carbonyl-SA[NMeC][NMeV] / II: Quinoxaline2carbonyl-SA[NMeC][NMeV]; ester I:1-II:C, I:C-II:1; disulfide I:3-II:3; configuration not given here) the T/C (dose: 100.0 micrograms/kg/injection, schedule: Q04DX003 (sc), vehicle: Klucel (hydroxypropylcellulose) (HPC)) was 104 % of control, the T/C (dose: 200.0 micrograms/kg/injection, schedule: Q04DX003 (sc), vehicle: Klucel (hydroxypropylcellulose) (HPC)) was 83 % of control and the T/C (dose: 400.0 micrograms/kg/injection, schedule: Q04DX003 (sc), vehicle: Klucel (hydroxypropylcellulose) (HPC)) was 54 % of control.

With `CC(C)CC(=O)NC(C(=O)NC(C(=O)NC(CC(C)C)C(O)CC(=O)NC(C)C(=O)NC(CC(C)C)C(O)CC(=O)O)C(C)C)C(C)C` (centres undefined) the T/C [5] was 70 % of control, the T/C [6] was 93 % of control and the T/C [7] was 66 % of control. The T/C [8] was 51 % of control.

In the case of `O=C(O[Si](Cc1ccccc1)(Cc1ccccc1)Cc1ccccc1)N(CCCl)CCCl`, the T/C (dose: 100.0 mg/kg/injection, schedule: Q04DX003 (sc), vehicle: saline with Tween-80) is reported as 53 % of control and the T/C [10] is reported as 120 % of control.

With `Cc1cc(N2C(=O)CCSC2=S)ccc1Cl` the T/C (dose: 75.0 mg/kg/injection, schedule: Q04DX003 (sc), vehicle: Klucel (hydroxypropylcellulose) (HPC)) was 60 % of control, the T/C [5] was 111 % of control and the T/C [6] was 62 % of control. The T/C [7] was 75 % of control.

In the case of `CCOC(=O)c1ccc(NC(=O)Nc2nccs2)cc1`, the T/C [11] is reported as 99 % of control, the T/C (dose: 200.0 mg/kg/injection, schedule: Q01DX010 (sc), vehicle: saline with Tween-80) is reported as 107 % of control and the T/C (dose: 400.0 mg/kg/injection, schedule: Q01DX010 (sc), vehicle: saline with Tween-80) is reported as 92 % of control. The T/C (dose: 800.0 mg/kg/injection, schedule: Q01DX010 (sc), vehicle: saline with Tween-80) was 66 % of control.

For `C[n+]1c2cc(N)ccc2cc2ccc(N)cc21`, the T/C (dose: 6.25 mg/kg/injection, schedule: Q01DX010 (sc), vehicle: saline) was 72 % of control.

For `CN(CO)c1nc(N(C)CO)nc(N(C)CO)n1`, the T/C (dose: 25.0 mg/kg/injection, schedule: Q01DX010 (sc), vehicle: saline) was 92 % of control, the T/C (dose: 50.0 mg/kg/injection, schedule: Q01DX010 (sc), vehicle: saline) was 57 % of control and the T/C (dose: 100.0 mg/kg/injection, schedule: Q01DX010 (sc), vehicle: saline) was 49 % of control.

In the case of `CN(C)c1ccc(C(=C2C=CC(=[N+](C)C)C=C2)c2ccc(N(C)C)cc2)cc1` (tested in a mixture with another compound), the T/C (dose: 7.5 mg/kg/injection, schedule: Q04DX003 (sc), vehicle: saline with Tween-80) is reported as 76 % of control, the T/C (dose: 15.0 mg/kg/injection, schedule: Q04DX003 (sc), vehicle: saline with Tween-80) is reported as 59 % of control and the T/C (dose: 30.0 mg/kg/injection, schedule: Q04DX003 (sc), vehicle: saline with Tween-80) is reported as 98 % of control. The T/C (dose: 60.0 mg/kg/injection, schedule: Q04DX003 (sc), vehicle: saline with Tween-80) was 65 % of control.
